Assay results: US6818657B1, “Bioprecursors of a retinoic derivative and pharmaceutical and/or cosmetic compositions” (Pierre Fabre Dermo-Cosmetique, priority 1999, dated 2004)
Values belong to the molecule of their own block, whether it stands above or below them.

How the values were obtained:
[1] = molecular target: T1, recombinant β-glucocerebrosidase (Homo sapiens, UniProt P04062); test: Michaelis constants (Km) and Vm of recombinant β-glucocerebrosidase for pseudosubstrates; type: biochemical; conditions: phthalate buffer pH 5.6 (0.025 M), taurocholate 5 mM, purified β-glucocerebrosidase, 30 minutes incubation
T1 construct: histidine tail (His tag) (C); made in house
T1 sequence (P04062 40-536): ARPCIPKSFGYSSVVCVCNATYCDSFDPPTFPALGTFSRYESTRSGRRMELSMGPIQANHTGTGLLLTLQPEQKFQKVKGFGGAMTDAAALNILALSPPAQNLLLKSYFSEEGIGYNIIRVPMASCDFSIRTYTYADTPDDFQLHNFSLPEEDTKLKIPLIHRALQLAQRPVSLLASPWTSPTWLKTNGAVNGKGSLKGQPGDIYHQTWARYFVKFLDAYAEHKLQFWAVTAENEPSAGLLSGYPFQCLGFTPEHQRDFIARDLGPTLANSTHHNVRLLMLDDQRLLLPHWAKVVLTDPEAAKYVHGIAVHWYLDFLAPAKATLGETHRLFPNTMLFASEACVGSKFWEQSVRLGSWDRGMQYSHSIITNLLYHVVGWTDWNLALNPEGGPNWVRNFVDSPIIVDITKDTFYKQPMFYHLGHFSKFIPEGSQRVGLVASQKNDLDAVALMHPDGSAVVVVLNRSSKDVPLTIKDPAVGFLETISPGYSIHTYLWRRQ
Method: After confirming that β-glucocerebrosidase is expressed in the keratinocytes, we produced a recombinant enzyme in the baculovirus system. A histidine tail was added to the COOH end of the protein to allow it to be purified by affinity column chromatography.
Thus, we were able to determine the Michaelis constants (Km) and the Vm values of the recombinant β-glucocerebrosidase in particular for the retinoic acid-arbutin glucoconjugate. The kinetics measurements are carried out in a phthalate buffer at pH 5.6 (0.025 M) containing taurocholate (5 mM), purified β-glucocerebrosidase and the test conjugate at various concentrations. The incubation lasts 30 minutes and the amount of hydroquinone-retinoic acid conjugate released is assayed by HPLC. The table below gives the results obtained. […] As regards their rates of hydrolysis, these are lower and thus allow effects to be obtained over time.

[2] = Distribution in the stratum corneum after topical application; type: in vivo

Km [1]: 2800 ± 700 µM | Vm weighted by the amount of soluble proteins [1]: 4000 ± 1000 nmol/h/mg
Structure (SMILES): Cc1cc(=O)oc2cc(O[C@@H]3O[C@H](CO)[C@@H](O)[C@H](O)[C@H]3O)ccc12 [4-Methylumbelliferyl-glucopyranoside, 4-methyl-umbelliferyl-β-D-glucopyranoside]

Structure (SMILES): CC1=C(/C=C/C(C)=C/C=C/C(C)=C/C(=O)O)C(C)(C)CCC1 [retinoic acid]
location in the stratum corneum after topical application ([2]; in vivo): accumulate in the upper layers of the stratum corneum after topical application and are removed by desquamation

Structure (SMILES): Cc1c(C)c2c(c(C)c1O)CC[C@@](C)(CCC[C@H](C)CCC[C@H](C)CCCC(C)C)O2 [vitamin E (α-tocopherol), α-tocopherol]
location in the stratum corneum after topical application ([2]; topical application, same excipient): accumulate in the upper layers of the stratum corneum after topical application and are removed by desquamation

Vm weighted by the amount of soluble proteins [1]: 453 ± 20 nmol/h/mg | Km ([1]; HPLC assay): 7 ± 1 µM
Structure (SMILES): Cc1cc(O[C@@H]2O[C@H](CO)[C@@H](O)[C@H](O)[C@H]2O)cc2c1O[C@](C)(CCC[C@H](C)CCC[C@H](C)CCCC(C)C)CC2 [δ-Tocopheryl-glucopyranoside]
